Key:
GBV-B replicon = assay: Effect of test compound on GBV-B replicon RNA in B76.1/Huh7 cells (TaqMan, neo primer set); type: cell-based
Experimental: (§1) Huh7 cell clones carrying GBV-B or HCV replicons were used to test the effect of human interferon alpha-2b. Cells (1×10^5) were plated into each well of a series of wells of Multiwell-6-wells plates (falcon cat N. 35-3046) in medium without G418. After 16 hours the medium was discarded and increasing concentrations of the test compound in fresh medium were added to each series of wells. Controls were run using the specific compound solvent at the appropriate dilution.
[…] Total RNA was purified as described in the TRizol protocol (Life Technologies). Ten out of 100 μl of total RNA were used in each reaction.
(§2) Taq Man analysis was performed using a neomycin primer set (taq NEO 1, GATGGATTGCACGCAGGTT (SEQ. ID. NO. 17), and taq NEO 5, […] (SEQ. ID. NO. 18)) and a NEO probe (1,6-carboxyfluorescein-TCCGGCCGCTTGGGT GGAG (SEQ. ID. NO. 19)-N,N,N′,N′-tetramethyl-6-carboxyrhodamine). Human GAPDH mRNA quantified with a specific primer set (PE Applied Biosystems) was used as an endogenous reference. GBV-B RNA extracted from mock-treated cells was used as a calibrator. Results from two independent experiments were analyzed using both the Comparative Ct Method and the standard curve method.
Experiments were performed using 10^5 cells of B76.1/Huh7 and 10A plated into individual wells of 6-multiwell plate and incubated overnight in the absence of G418. […]

HCV replicon = assay: Effect of test compound on HCV replicon RNA in 10A Huh7 cells (TaqMan, neo primer set); type: cell-based; details: 10A cells (HCV replicon in Huh7), up to 3 days, replicon RNA normalized to GAPDH
Experimental: as §1
Cells were grown up to 3 days in the presence of compounds or compound solvent without a compound, avoiding cell confluence, and finally lysed with TRIzol. Total RNA was purified as described in the TRizol protocol (Life Technologies). Ten out of 100 μl of total RNA were used in each reaction.
as §2, with “method. […]” for “method.”

RepB replication = assay: beta-lactamase stain of bla-RepB transfected cB76.1/Huh7 cells; type: cell-based, GBV-B
Experimental: Immediately after electric pulses cells were diluted in 8 ml complete Dulbecco's Modified Eagle Medium (DMEM) and processed with different protocols depending on the selection/tracer used. In the case of neo-constructs transformation, cells were divided in 3 plates of 15 cm diameter and on the following day the selecting antibiotic G418 (Sigma G-9516) was added at a concentration of 0.250, 0.5 or 1 mg/ml. […] Surviving clones were picked-up and expanded by growing them in individual plates. When a bla reporter gene was used, 1.5 ml, 1.0 ml and 0.5 ml of transfected cells suspension were plated in each well of Multiwell-6-wells plate (Falcon cat. N. 35-3046) to be stained respectively at 24, 48 and 72 hours.
Aurora substrate system “CCF4” was used to measure β-lactamase activity. When quantitative PCR was used to measure transient replication, cells were plated 1-2×10^5/well in “6-multi-well plate”. After 3 days total RNA was purified as described in the TRIzol protocol (Life Technologies) and 10 out of 100 μl of total RNA were used in individual TaqMan reactions.
The increased efficiency of replication of RepB RNA in cB76.1/Huh7 cells compared to wild type Huh7 cells was also monitored using a colorimetric assay after transfection of RNA transcribed from bla-RepB plasmid. The bla-RepB plasmid expresses a […] marker in place of the selector neomycin phosphotransferase. […]

[1] = tested on: GBV-B full-length genomic FL3 RNA; assay: Replication of full-length GBV-B FL3 RNA transfected in cB76.1/Huh7 enhanced cells (Taqman); type: cell-based
Source text: GBV-B RNA was quantified by a real-time 5′ exonuclease PCR (TaqMan) assay using a primer/probe set that recognized a portion of the GBV-B 5′UTR. The primers (GBV-B-F3, GTAGGCGGCGGGACTCAT (SEQ. ID. NO. 14), and GBV-B-R3, TCAGGGCCATCCAAGTCAA (SEQ. ID NO. 15)) and probe (GBV-B-P3,6-carboxyfluorescein-[…] (SEQ. ID. NO. 16)-N,N,N′,N′-tetramethyl-6-carboxyrhodamine) were selected using the Primer Express software (PE Applied Biosystems). The fluorescent probe was obtained from PE Applied Biosystems. The primers were used at 10 pmol/50 μl reaction, and the probe was used at 5 pmol/50 μl reaction.
PCR was were performed using a TaqMan Gold RT-PCR kit (PE Applied Biosystems). […]
RNA transcribed from a plasmid containing the first 2000 nucleotides of the GBV-B genome was used as a standard to establish genome equivalents. […] RNA was quantified by absorbance at 260 nm and stored at −80° C.
All reactions were run in duplicate by using the ABI Prism 7700 Sequence Detection System (PE Applied Biosystems). […] Results from two independent experiments were analyzed using both the Comparative Ct Method and the standard curve method.
GBV-B full-length genomic FL3 RNA (EMBL accession number AJ277947) was transfected in Huh7 and in enhanced cells cB76.1/Huh7 in parallel with the corresponding GAA control. Intracellular GBV-B RNA was measured by Taqman in a time-course experiment.

GBV-B virus = assay: Infection of enhanced cells with GBV-B virus-containing serum by electroporation (Taqman); type: cell-based
Experimental: GBV-B virus inoculum produced upon passage of virus in tamarins was used to infect Huh7 and cB76.1/Huh7 enhanced cells. GBV-B containing tamarin serum was layered onto 10^5 cells in multiwell-6-wells 1 day after plating at multiplicity of infection of 0.75 G.E./cell. After 6 hours adsorption, the virus-containing serum was removed, the cells extensively washed and incubated in the serum-free DMEM. Cells from individual wells were lyzed with Trizol at different times and GBV-B RNA quantified by Taqman.
As an alternative method, 10^6 cells were mixed with undiluted virus-containing serum (10^6 G.E.) and subjected to electroporation. The cells were plated at a density of 10^5/well and treated as described for experiments of RNA electroporation. Duplicate wells were run in parallel, with and without interferon. Cells from individual wells were lyzed with Trizol at different times and GBV-B RNA quantified by Taqman. The amount of G.E. detectable immediately after electroporation and wash was 10^3 G.E., it was undetectable at 24 and 48 hours, at day 3 it was 10^4 G.E.; at day 6 it was 5×10^3 (possibly inhibition due to cell density); in corresponding wells treated with interferon the RNA was undetectable. […] RNA was quantified at day 13 and 16 giving a figure corresponding to 4×10^3 G.E. and 1.2×10^4 G.E. respectively. […]

Substance: human interferon alpha-2b [Human alpha-IFN]
- Replicon RNA after curing treatment (GBV-B replicon; B76.1/Huh7, 100 U/ml for 15 days in the absence of neomycin, TaqMan at end of treatment): disappearance of the selectable RNA replicon molecules
- IC50 on GBV-B replicon (GBV-B replicon; B76.1/Huh7 cells, up to 3 days, replicon RNA normalized to GAPDH): 0.45 U/ml
- IC50 on HCV replicon (HCV replicon): 0.58 U/ml
- Number of blue cells (RepB replication): reduced the number of blue cells to background levels
- Decrease of FL3 RNA amount ([1]; cB76.1/Huh7 transfected with FL3, day 6): 10-20 fold
- Effect on GAA mutant RNA amount ([1]; cB76.1/Huh7 transfected with mutant GAA construct, day 6): did not affect
- GBV-B RNA in cells cultivated in the presence of IFN (GBV-B virus; after splits, points up to day 16): background signals
- GBV-B RNA in treated wells (GBV-B virus; day 3 and day 6 after electroporation with virus-containing serum): undetectable
